# Measured values from patent publication US20130275051A1, “COMPUTING DEVICE AND METHOD FOR DETECTING CELL DEATH IN A BIOLOGICAL SAMPLE” (priority 2011, published 2013).
# Test system: human bladder carcinoma (HT-1376) tumors
# Assay: OCT decorrelation time in tumors grown in dorsal skin-fold window chamber model
# Assay type: in vivo
# Settings: mice, single tail vein injection 100 mg/m2, 0, 24 and 48 hours, FIG. 11; cell death confirmed by histological data
# Source text: An in-vivo tumor model used in the successful experiment consisted of human bladder carcinoma (HT-1376) tumors grown within a dorsal skin-fold window chamber model in a plurality of mice. […] A custom built 36 kHz swept source OCT system (similar to system 100) was used for in-vivo acquisition of data. For each imaging time point, two-dimensional frames of OCT data were acquired at 200 frames per second over approximately 8 seconds. Each frame contained 180 axial scans and covered a lateral distance of 3 mm. Data sets were acquired from imaging planes within the window chamber of each mouse. Method 200 was applied to each pixel location of an ROI within tumors at 0 hours, 24 hours and 48 hours to obtain an average decorrelation time at each of 0 hours, 24 hours and 48 hours.
structure (smiles),measurement,value
N.N.[Cl][Pt][Cl] [cisplatin],average decorrelation time within tumor ROI,increase in average decorrelation time
